Assay results reported in patent US7521418B2, “Use of a polyene macrolide antifungal agent in combination with a glycopeptide antibacterial agent” (Theravance, Inc., priority 2003, dated 2009).

Tested on: C. tropicalis ATCC 750
Test: Checkerboard MIC assay, FICI
Format: cell-based, Candida tropicalis
Conditions: combination with Compound 1; C. tropicalis ATCC 750
Text: The following assay was used to determine the minimum inhibitory concentration (MIC) and fractional inhibitory concentration index (FICI) for combinations of an antifungal agent and a glycopeptide antibacterial agent. This assay and methods for calculating FICI are well known in the art. See, for example, Eliopoulos, E. G. and R. Moellering, Jr. “Antimicrobial Combinations” in Antibiotics in Laboratory Medicine, edited by V. Lorian, 4th Ed., Williams & Wilkins, Baltimore, MD, pp. 330-396 (1996); […] et al., Antimicrobial Agents and Chemotherapy 47(4):1416-1418 (2003); or […] et al., Antimicrobial Agents and Chemotherapy 46(10):3323-3326 (2002). Procedures, protocols, supplies and equipment used in this assay follow the recommendations approved and published by the National Committee for Clinical Laboratory Standards (NCCLS), Wayne, Pa. as described in NCCLS 2003, “Reference Method for Broth Dilution Antimicrobial Susceptibility Tests for Bacteria that Grow Aerobically; Approved Standard” (NCCLS document M7-A6); NCCLS 2002, “Reference Method for Broth Dilution Antifungal Susceptibility Tests of Filamentous Fungi that Grow Aerobically; Approved Standard” (NCCLS document M38-A); and NCCLS 2002 “Reference Method for Broth Dilution Antifungal Susceptibility Tests of Yeast; Approved Standards-2nd Edition” (NCCLS document M27-A2). Using a checkerboard method, a 2-fold dilution 100× final concentration master plate was prepared using a 96-well U-shape microtiter plate and an appropriate solvent. In the “checkerboard” method, a microtiter plate is divided into “columns” in which each well in the column contains the same amount of an antifungal agent (Compound A) being diluted along the x-axis, and “rows” in which each well in the row contains the same amount of a glycopeptide antibacterial agent (Compound B) being diluted on the y-axis. Also included is a row (or column) for Compound A or B alone. The dilutions used in the checkerboard are exponential (by powers of two). The result is that each well in the microtiter plate contains a unique concentration of the two compounds being tested. […] After mixing, 100 μL of 2× drug combinations were distributed into 96-well microtiter plates. […] Compound A was not added to Column 12, so Column 12 contained only Compound B. Compound B was diluted from row A starting at 6,400 μg/mL down to row G (100 μg/mL). Wells in Row A contained a final concentration of 64 μg/mL of Compound B; Row B contained a final concentration of 32 μg/mL of Compound B; Row C contained a final concentration of 16 μg/mL of Compound B; etc. Compound B was not added to Row H, so Row H only contained Compound A. […] The MIC of the glycopeptide antibacterial agent determined from this experiment was used in FIC calculations. […] RPMI-1640 without sodium bicarbonate media (GIBCO-BRL, Carlsbad, Calif.), an enriched media formulated for mammalian cells, was used according to the NCCLS guidelines for yeast and filamentous fungi susceptibility testing. The medium was buffered with 0.165 M 3-[N-Morpholino]propanesulfonic acid (MOPS) supplemented with 20 g/L glucose and pH adjusted to 7.0 with hydrogen chloride. Sabouraud Dextrose Agar ([…] plates, and Potato Dextrose Agar (PDA) plates were purchased from Hardy Diagnostic (Santa Maria, Calif.). Yeast cultures were started from -80° C. frozen stock streaked on […] incubated at 35° C. under aerobic conditions for 24 h. The […] in the refrigerator for up to 2 weeks and used regularly as a starting culture. About 24 to 48 h before each assay was run, yeasts were streaked on SDA plates for isolated colonies. To prepare the inoculum, from one to four colonies were resuspended in 5 mL of saline, and vortexed for 15 sec. […] For most yeast and mold cultures, the optical density (OD) of the suspension was adjusted to 0.11 in saline to provide 0.4×10^6 CFU/mL. However, for Fusarium moniliforme and Pseudallescheria boydii the OD of the suspension was adjusted to OD=0.17 to provide 0.4×10^6 CFU/mL. […]

C[C@@H]1[C@H](O)[C@@H](C)/C=C/C=C/C=C/C=C/C=C/C=C/C=C/[C@H](O[C@@H]2O[C@H](C)[C@@H](O)[C@H](N)[C@@H]2O)C[C@@H]2O[C@](O)(C[C@@H](O)C[C@@H](O)[C@H](O)CC[C@@H](O)C[C@@H](O)CC(=O)O[C@H]1C)C[C@H](O)[C@H]2C(=O)O [Amphotericin B]
FICI: 0.27

C[C@@H]1[C@H](O)[C@@H](C)/C=C/C=C/CC/C=C/C=C/C=C/C=C/C(O[C@H]2O[C@H](C)[C@@H](O)[C@H](N)[C@@H]2O)CC2O[C@](O)(CC(O)C(O)CCC(O)CC(O)CC(O)CC(=O)O[C@H]1C)CC(O)C2C(=O)O (some centres unmarked) [Nystatin]
FICI: 0.31
